Here are results for 6 molecules from US6171809A, “Method and compositions for detecting luciferase biological samples” (priority 1998, dated 2001).

Where no end group is shown, it is not given here.

For assay [1], the target named is T1, human beta-2 adrenoceptor (Homo sapiens, UniProt P07550).
T1 construct: expressed in transfected cells; host or cells: CHO (Chinese hamster ovary) cells stably carrying a CRE-renilla luciferase reporter
As to the kind of experiment: Compound screening, renilla luciferase readout, CRE/firefly/V2 and CRE/ren/beta2 cells, beta2-adrenoceptor, Example 3. In kind it is cell-based. How it is done: (§1) Stable mammalian cell lines transfected with c-AMP responsive reporter genes containing either the firefly or renilla luciferase reporter proteins (CRE-firefly and CRE-ren) were generated.
(§2) These receptors are members of the super family of G-protein coupled receptors which interact with the stimulatory G-protein alpha unit.
Firefly luciferase and/or renilla luciferase producing CHO (Chinese hamster ovary) cells are cultured in tissue culture flasks and grown to 90% confluency. Twenty-four hours before the assay, the cells are quiesced in serum-free medium containing 1 mg/ml BSA (bovine serum albumin). Immediately prior to the assay, cells are removed with HBSS/EDTA (Hanks balanced salt solution containing EDTA), centrifuged and resuspended in 10 ml phenol red-free and serum-free medium supplemented with 1 mg/ml BSA. Next, the cells are plated into a 96 well microtiter plate at 90 μl/well and returned to the incubator. After 1 hour, 10 μl of the test compound, made up in either water or phenol red-free medium, is added. The microplates then are further incubated for 4 hours. Finally, the firefly luciferase detection reagent is made up and 100 μl of this detection solution is added to each well. After 10 minutes, the microplate is counted for firefly luciferase activity. […] The plate is left for 15 minutes in the dark and then counted for renilla luciferase activity. […]

Assay [2] addresses T1, human beta-2 adrenoceptor. The assay is described as follows: beta2-adrenoceptor dose response, renilla luciferase readout after renilla detection reagent (CRE/ren/beta2 cells mixed with CRE/firefly/V2 cells), Example 2. In kind it is cell-based. How it is done: as §1, §2
Firefly luciferase and/or renilla luciferase producing CHO (Chinese hamster ovary) cells are cultured in tissue culture flasks and grown to 90% confluency. Twenty-four hours before the assay, the cells are quiesced in serum-free medium containing 1 mg/ml BSA (bovine serum albumin). Immediately prior to the assay, cells are removed with HBSS/EDTA (Hanks balanced salt solution containing EDTA), centrifuged and resuspended in 10 ml phenol red-free and serum-free medium supplemented with 1 mg/ml BSA. Next, the cells are plated into a 96 well microtiter plate at 90 μl/well and returned to the incubator. After 1 hour, 10 μl of the test compound, made up in either water or phenol red-free medium, is added. The microplates then are further incubated for 4 hours. Finally, the firefly luciferase detection reagent is made up and 100 μl of this detection solution is added to each well. After 10 minutes, the microplate is counted for firefly luciferase activity. […] The plate is left for 15 minutes in the dark and then counted for renilla luciferase activity.

The test system of assay [3] is adenylcyclase. The assay is described as follows: Forskolin dose response, firefly luciferase reporter (CRE-firefly CHO cells mixed with CRE-ren cells), Example 1. In kind it is cell-based, Chinese hamster ovary. The note with it: 15 and 160 minutes after reagent addition; FIG. 1. As for the experimental part:
A kit for the sequential detection of firefly luciferase and renilla luciferase was prepared which consisted of a firefly luciferase assay reagent and a renilla luciferase assay reagent. The firefly luciferase reagent consisted of AMP, EDTA, firefly luciferin, ATP, DTT, phenylacetic acid and oxalic acid as originally described in U.S. Pat. No. 5,618,682. Stable mammalian cell lines transfected with c-AMP responsive reporter genes containing either the firefly or renilla luciferase reporter proteins (CRE-firefly and CRE-ren) were generated. Firefly luciferase and/or renilla luciferase producing CHO (Chinese hamster ovary) cells are cultured in tissue culture flasks and grown to 90% confluency. Twenty-four hours before the assay, the cells are quiesced in serum-free medium containing 1 mg/ml BSA (bovine serum albumin). […] After 10 minutes, the microplate is counted for firefly luciferase activity. […] The plate is left for 15 minutes in the dark and then counted for renilla luciferase activity. […] The assay plates were counted in a TopCount™ Luminescence Counter (Packard Instrument Company) at 15 or 160 minutes after reagent addition. […] Furthermore, renilla luminescence generated using the composition of this invention, is 10-fold brighter than the firefly luciferase generated light signal.
(In general: A reporter such as luciferase makes a cellular process visible.)

For another assay, the system named is CHO cells. As to the kind of experiment: Compound screening, endogenous response of CHO cells (CRE/firefly/V2 and CRE/ren/beta2), Example 3. Type of assay: cell-based, Chinese hamster ovary. The note with it: for firefly luciferase response (endogenous): firefly luciferase detection reagent; for agonist activity at these cells: CRE/firefly/V2 and CRE/ren/beta2 cells. How it is done: as §1, §2
Firefly luciferase and/or renilla luciferase producing CHO (Chinese hamster ovary) cells are cultured in tissue culture flasks and grown to 90% confluency. Twenty-four hours before the assay, the cells are quiesced in serum-free medium containing 1 mg/ml BSA (bovine serum albumin). Immediately prior to the assay, cells are removed with HBSS/EDTA (Hanks balanced salt solution containing EDTA), centrifuged and resuspended in 10 ml phenol red-free and serum-free medium supplemented with 1 mg/ml BSA. Next, the cells are plated into a 96 well microtiter plate at 90 μl/well and returned to the incubator. After 1 hour, 10 μl of the test compound, made up in either water or phenol red-free medium, is added. The microplates then are further incubated for 4 hours. Finally, the firefly luciferase detection reagent is made up and 100 μl of this detection solution is added to each well. After 10 minutes, the microplate is counted for firefly luciferase activity. Next, to each well, 100 μl/well of 5 μM of coelenterazine in 2 mM EDTA buffer solution is added. The plate is left for 15 minutes in the dark and then counted for renilla luciferase activity.
CRE/firefly/V2 and CRE/ren/beta2 cells were mixed and plated into individual wells of a black 96-well ViewPlate and a range of compounds were applied to the cells.

Assay [4] relates to adenylcyclase. The assay is described as follows: Forskolin dose response, renilla luciferase reporter (CRE-ren CHO cells mixed with CRE-firefly cells), Example 1. In kind it is cell-based, Chinese hamster ovary. As for the experimental part: A kit for the sequential detection of firefly luciferase and renilla luciferase was prepared which consisted of a firefly luciferase assay reagent and a renilla luciferase assay reagent. The renilla luciferase reagent consisted of 5 μM of coelenterazine in 2 mM EDTA buffer with a pH 7.5. Stable mammalian cell lines transfected with c-AMP responsive reporter genes containing either the firefly or renilla luciferase reporter proteins (CRE-firefly and CRE-ren) were generated. Firefly luciferase and/or renilla luciferase producing CHO (Chinese hamster ovary) cells are cultured in tissue culture flasks and grown to 90% confluency. Twenty-four hours before the assay, the cells are quiesced in serum-free medium containing 1 mg/ml BSA (bovine serum albumin). Immediately prior to the assay, cells are removed with HBSS/EDTA (Hanks balanced salt solution containing EDTA), centrifuged and resuspended in 10 ml phenol red-free and serum-free medium supplemented with 1 mg/ml BSA. Next, the cells are plated into a 96 well microtiter plate at 90 μl/well and returned to the incubator. After 1 hour, 10 μl of the test compound, made up in either water or phenol red-free medium, is added. The microplates then are further incubated for 4 hours. Finally, the firefly luciferase detection reagent is made up and 100 μl of this detection solution is added to each well. After 10 minutes, the microplate is counted for firefly luciferase activity. Next, to each well, 100 μl/well of 5 μM of coelenterazine in 2 mM EDTA buffer solution is added. The plate is left for 15 minutes in the dark and then counted for renilla luciferase activity. CRE-ren cells were stimulated with 10 μM forskolin, a compound which directly activates adenylcyclase to cause an increase in the level of […] cAMP. […] The assay plates were counted in a TopCount™ Luminescence Counter (Packard Instrument Company) at 15 or 160 minutes after reagent addition. […] Furthermore, renilla luminescence generated using the composition of this invention, is 10-fold brighter than the firefly luciferase generated light signal.

T1 sequence (P07550 whole entry): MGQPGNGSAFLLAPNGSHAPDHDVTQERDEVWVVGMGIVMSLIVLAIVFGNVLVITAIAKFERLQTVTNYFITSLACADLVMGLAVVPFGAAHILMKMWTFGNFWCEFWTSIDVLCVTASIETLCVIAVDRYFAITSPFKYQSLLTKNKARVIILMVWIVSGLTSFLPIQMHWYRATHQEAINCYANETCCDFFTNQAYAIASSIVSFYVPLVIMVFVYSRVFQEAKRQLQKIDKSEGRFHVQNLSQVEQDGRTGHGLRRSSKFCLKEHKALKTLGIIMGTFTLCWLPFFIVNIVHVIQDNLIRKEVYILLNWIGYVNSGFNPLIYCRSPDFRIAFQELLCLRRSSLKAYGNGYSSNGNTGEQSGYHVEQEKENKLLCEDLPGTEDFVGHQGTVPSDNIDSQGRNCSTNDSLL

`NC(=O)CC[C@@H]1NC(=O)[C@H](Cc2ccccc2)NC(=O)[C@H](Cc2ccc(O)cc2)NC(=O)[C@@H](N)CSSC[C@@H](C(=O)N2CCC[C@H]2C(=O)N[C@@H](CCCN=C(N)N)C(=O)NCC(N)=O)NC(=O)[C@H](CC(N)=O)NC1=O` [vasopressin]: in assay [1], the “luminescence signal following addition of renilla luciferase detection reagent” value is given as “not significantly above basal”. Besides, in assay [2] (FIG. 2), the “stimulation of renilla luminescence” value is “did not stimulate renilla luminescence”. In addition, the “response curve after subsequent addition of renilla detection reagent” value in assay [2] (renilla detection reagent added to the same cells) is given as “flattened”.
As for `C=C[C@@]1(C)CC(=O)[C@]2(O)[C@@]3(C)[C@@H](O)CCC(C)(C)[C@@H]3[C@H](O)[C@H](OC(C)=O)[C@@]2(C)O1` [forskolin], the “nature of the firefly luminescence” value in the assay on adenylcyclase [3] was “identical at 15 and 160 minutes after reagent addition”. Also, in the assay with CHO cells, the “action on CHO cells (conclusion)” value is given as “act on CHO cells to generate an endogenous response”, the “firefly luciferase response (endogenous)” value is “a firefly luciferase response was obtained” and the “luminescent signal following addition of renilla luciferase detection reagent (endogenous)” value is “A luminescent signal was maintained”. Besides, in the assay with adenylcyclase [4] (15 minutes after reagent addition), the “renilla luciferase luminometric response” value is reported as 3.5×10^6. Further, in the assay on adenylcyclase [4] (160 minutes after reagent addition), the “renilla luciferase luminometric response” value is 1.8×10^6. In the assay on adenylcyclase [4] (renilla response, 15 versus 160 minutes), the “EC50 for forskolin stimulation of adenyl cyclase” value is on record as “remains similar”.
Consider `NCCc1c[nH]c2ccc(O)cc12` [serotonin], for which the “agonist activity at these cells” value in the assay with CHO cells is on record as “not agonists active at these cells”.
For the molecule `NC(=O)CC[C@@H]1NC(=O)[C@H](Cc2ccccc2)NC(=O)[C@H](Cc2ccc(O)cc2)NC(=O)CCSSC[C@@H](C(=O)N2CCC[C@H]2C(=O)N[C@H](CCCN=C(N)N)C(=O)NCC(N)=O)NC(=O)[C@H](CC(N)=O)NC1=O` [desmopressin], the “luminescence signal following addition of renilla luciferase detection reagent” value in assay [1] is “not significantly above basal”.
Take `CC(C)C[C@H](NC(=O)[C@H](CCCCN)NC(=O)[C@H](CCCN=C(N)N)NC(=O)[C@H](C)NC(=O)[C@H](CO)NC(=O)[C@H](CCCCN)NC(=O)[C@H](CCCN=C(N)N)NC(=O)[C@H](C)NC(=O)CNC(=O)[C@@H](NC(=O)[C@H](Cc1ccccc1)NC(=O)CNC(=O)CNC(=O)[C@@H](N)Cc1ccccc1)[C@@H](C)O)C(=O)N[C@@H](C)C(=O)N[C@@H](CC(N)=O)C(=O)N[C@@H](CCC(N)=O)C(=O)O` [nociceptin]: the “agonist activity at these cells” value in the assay with CHO cells is “not agonists active at these cells”.
Turning to “thyro-calcitonin (CGNLSTCMLGTYTQDFNKFHTFPQTAIGVGAP; ends and bridges not checked; cysteine pairing not given here; UniProt P01258 85-116, looked up) [CHO cells express an endogenous calcitonin receptor]”, in the assay on CHO cells, the “action on CHO cells (conclusion)” value is listed as “act on CHO cells to generate an endogenous response”, the “firefly luciferase response (endogenous)” value is on record as “a firefly luciferase response was obtained” and the “luminescent signal following addition of renilla luciferase detection reagent (endogenous)” value is recorded as “A luminescent signal was maintained”.
